How the values were obtained:
[1] = target: T1, Growth hormone secretagogue receptor type 1 (Homo sapiens, UniProt Q92847); assay: Displacement of [35S]MK677 from human ghrelin receptor expressed in african green monkey COS7 cells; format: cell-based, COS-7
[2] = target: T1, Growth hormone secretagogue receptor type 1; assay: Inverse agonist activity at human ghrelin receptor expressed in african green monkey COS7 cells assessed as constitutively stimulated inositol phosphate accumulation; format: functional, cell-based, COS-7

T1 sequence (Q92847 whole entry): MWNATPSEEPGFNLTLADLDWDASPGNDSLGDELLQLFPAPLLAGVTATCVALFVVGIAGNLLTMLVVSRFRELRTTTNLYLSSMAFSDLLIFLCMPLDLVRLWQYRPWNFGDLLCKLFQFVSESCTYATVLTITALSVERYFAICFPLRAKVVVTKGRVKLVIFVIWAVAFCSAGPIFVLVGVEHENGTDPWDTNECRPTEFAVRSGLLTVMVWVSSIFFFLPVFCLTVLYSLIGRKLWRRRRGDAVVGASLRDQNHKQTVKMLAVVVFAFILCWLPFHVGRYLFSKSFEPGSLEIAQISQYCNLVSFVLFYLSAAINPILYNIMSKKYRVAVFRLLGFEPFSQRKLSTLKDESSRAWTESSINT

Row | IC50 [1] [nM] | IC50 [2] [nM] | Compound
1 | 540 | 159 | NC(=O)CNC(=O)CNC(=O)[C@@H](Cc1c[nH]c2ccccc12)NC(=O)[C@H](Cc1ccccc1)NC(=O)[C@H](N)Cc1c[nH]c2ccccc12
2 | > 1000 | > 1000 | C[C@H](NC(=O)[C@H](C)NC(=O)[C@@H](Cc1c[nH]c2ccccc12)NC(=O)[C@H](Cc1ccccc1)NC(=O)[C@H](N)Cc1c[nH]c2ccccc12)C(N)=O

Further lines, the compound ahead of its results:

Row | Compound | IC50 [1] [nM] | IC50 [2] [nM]
3 | CC(C)C[C@H](NC(=O)[C@H](CC(C)C)NC(=O)[C@@H](Cc1c[nH]c2ccccc12)NC(=O)[C@H](Cc1ccccc1)NC(=O)[C@@H](Cc1c[nH]c2ccccc12)NC(=O)[C@@H](N)CC(=O)O)C(N)=O | 60 | 260
4 | CC(C)C[C@H](NC(=O)[C@H](CC(C)C)NC(=O)[C@@H](Cc1c[nH]c2ccccc12)NC(=O)[C@H](Cc1ccccc1)NC(=O)[C@H](N)Cc1c[nH]c2ccccc12)C(N)=O | 530 | > 1000
5 | CC(C)C[C@H](NC(=O)[C@H](CC(C)C)NC(=O)[C@@H](Cc1c[nH]c2ccccc12)NC(=O)[C@H](Cc1ccccc1)NC(=O)[C@@H](Cc1c[nH]c2ccccc12)NC(=O)[C@@H](N)CCC(N)=O)C(N)=O | 120 | 990

— ChEMBL document CHEMBL1156448, “Identification of an efficacy switch region in the ghrelin receptor responsible for interchange between agonism and inverse agonism” (J Biol Chem, 2007)
